Measurements as given in ChEMBL document CHEMBL1201862, “PubChem BioAssay data set” (2004).
Active and inactive are the calls of the source.

Columns and labels:
[1] = target: T1, Sentrin-specific protease 8 (Homo sapiens, UniProt Q96LD8); format: functional
T1 sequence (Q96LD8 whole entry): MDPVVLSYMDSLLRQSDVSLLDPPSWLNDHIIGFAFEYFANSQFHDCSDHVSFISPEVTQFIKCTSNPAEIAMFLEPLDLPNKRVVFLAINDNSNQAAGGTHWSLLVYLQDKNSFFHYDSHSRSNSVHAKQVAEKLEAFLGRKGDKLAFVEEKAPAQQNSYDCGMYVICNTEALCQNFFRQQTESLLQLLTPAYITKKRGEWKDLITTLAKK

[2] = target: T2, Caspase-3 (Homo sapiens, UniProt P42574); format: functional;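 also: Dose-response selectivity test against caspase-3 for candidate inhibitors of sentrin-specific proteases (SENPs)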
T2 sequence (P42574 whole entry): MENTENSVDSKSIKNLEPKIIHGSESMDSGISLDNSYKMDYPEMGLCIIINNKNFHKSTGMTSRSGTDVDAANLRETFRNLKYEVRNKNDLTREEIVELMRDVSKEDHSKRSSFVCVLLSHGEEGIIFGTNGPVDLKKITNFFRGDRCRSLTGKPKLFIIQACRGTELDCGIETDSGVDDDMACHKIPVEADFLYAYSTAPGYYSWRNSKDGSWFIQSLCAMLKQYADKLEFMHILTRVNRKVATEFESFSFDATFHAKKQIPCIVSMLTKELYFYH

[3] = target: T3, Sentrin-specific protease 7 (Homo sapiens, UniProt Q9BQF6); format: functional;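 also: Luminescence-based dose-response confirmation of ultra-high-throughput screening hits, measuring inhibition of SENP7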
T3 sequence (Q9BQF6 whole entry): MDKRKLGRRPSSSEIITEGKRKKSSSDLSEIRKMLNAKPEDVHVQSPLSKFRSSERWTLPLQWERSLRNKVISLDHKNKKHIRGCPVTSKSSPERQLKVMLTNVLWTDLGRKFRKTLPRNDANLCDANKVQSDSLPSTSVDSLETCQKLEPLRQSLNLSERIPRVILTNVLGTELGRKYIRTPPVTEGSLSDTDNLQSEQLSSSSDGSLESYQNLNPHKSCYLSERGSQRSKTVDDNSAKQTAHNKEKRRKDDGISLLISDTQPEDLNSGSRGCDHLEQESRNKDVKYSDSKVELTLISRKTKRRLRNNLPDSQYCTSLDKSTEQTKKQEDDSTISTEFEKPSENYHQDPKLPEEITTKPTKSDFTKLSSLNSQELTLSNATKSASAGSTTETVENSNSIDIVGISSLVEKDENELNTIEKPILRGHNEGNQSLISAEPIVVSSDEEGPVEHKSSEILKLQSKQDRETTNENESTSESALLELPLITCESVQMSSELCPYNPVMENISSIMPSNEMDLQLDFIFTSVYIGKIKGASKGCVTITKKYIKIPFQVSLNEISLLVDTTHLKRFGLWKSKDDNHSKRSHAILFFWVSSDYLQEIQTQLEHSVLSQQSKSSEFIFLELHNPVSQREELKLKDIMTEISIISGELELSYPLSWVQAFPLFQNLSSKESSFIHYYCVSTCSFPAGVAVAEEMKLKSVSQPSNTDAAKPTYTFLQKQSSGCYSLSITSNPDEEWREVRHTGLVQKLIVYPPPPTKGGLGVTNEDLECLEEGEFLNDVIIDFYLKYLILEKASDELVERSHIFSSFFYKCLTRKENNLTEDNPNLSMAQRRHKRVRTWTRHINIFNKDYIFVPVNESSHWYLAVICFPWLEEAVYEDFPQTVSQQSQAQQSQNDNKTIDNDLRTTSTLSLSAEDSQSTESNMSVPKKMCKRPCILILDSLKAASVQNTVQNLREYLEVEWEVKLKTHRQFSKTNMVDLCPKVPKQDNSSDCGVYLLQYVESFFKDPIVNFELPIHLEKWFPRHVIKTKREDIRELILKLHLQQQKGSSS

[4] = target: T1, Sentrin-specific protease 8; format: functional; remark: listed apart in the source
[5] = target: T4, Sentrin-specific protease 6 (Homo sapiens, UniProt Q9GZR1); format: functional;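 also: Luminescence-based dose-response confirmatory assay of SENP6 inhibition, following up an ultra-high-throughput screen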
T4 sequence (Q9GZR1 whole entry): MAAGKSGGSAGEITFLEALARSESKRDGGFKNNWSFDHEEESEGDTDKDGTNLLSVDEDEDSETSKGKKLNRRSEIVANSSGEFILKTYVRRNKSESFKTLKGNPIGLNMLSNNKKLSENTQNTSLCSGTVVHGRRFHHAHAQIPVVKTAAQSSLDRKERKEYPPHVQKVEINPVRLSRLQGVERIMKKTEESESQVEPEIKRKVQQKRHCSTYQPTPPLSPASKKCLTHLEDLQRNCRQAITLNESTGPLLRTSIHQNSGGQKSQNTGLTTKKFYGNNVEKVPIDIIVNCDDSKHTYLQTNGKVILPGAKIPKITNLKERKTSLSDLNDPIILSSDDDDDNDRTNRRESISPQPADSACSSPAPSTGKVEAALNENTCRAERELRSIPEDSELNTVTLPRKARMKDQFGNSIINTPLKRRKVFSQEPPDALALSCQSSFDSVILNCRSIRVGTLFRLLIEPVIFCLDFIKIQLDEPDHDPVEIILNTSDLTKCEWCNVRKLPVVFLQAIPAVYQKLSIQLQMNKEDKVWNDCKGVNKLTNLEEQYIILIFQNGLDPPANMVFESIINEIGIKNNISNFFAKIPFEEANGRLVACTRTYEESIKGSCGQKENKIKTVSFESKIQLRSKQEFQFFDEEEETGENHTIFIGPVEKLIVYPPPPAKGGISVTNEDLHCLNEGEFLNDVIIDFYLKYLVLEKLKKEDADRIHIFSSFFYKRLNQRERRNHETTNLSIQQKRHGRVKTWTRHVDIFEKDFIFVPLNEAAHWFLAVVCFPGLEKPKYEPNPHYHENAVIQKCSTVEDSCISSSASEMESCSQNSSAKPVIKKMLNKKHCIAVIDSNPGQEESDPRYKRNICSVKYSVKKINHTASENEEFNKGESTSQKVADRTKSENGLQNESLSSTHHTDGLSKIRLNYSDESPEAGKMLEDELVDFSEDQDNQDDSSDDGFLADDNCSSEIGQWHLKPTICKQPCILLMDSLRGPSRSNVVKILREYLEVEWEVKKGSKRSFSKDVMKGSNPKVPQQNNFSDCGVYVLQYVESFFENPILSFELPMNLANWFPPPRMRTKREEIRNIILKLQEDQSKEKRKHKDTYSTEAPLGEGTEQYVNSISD

[6] = target: T5, Mitochondrial peptide methionine sulfoxide reductase (Bos taurus, UniProt P54149); assay: Absorbance-based biochemical high throughput dose response assay for activators of Methionine sulfoxide reductase A (MsrA).; format: functional
[7] = target: T6, Interleukin-8 (Homo sapiens, UniProt P10145); assay: Dose Response confirmation of uHTS small molecule hits for cystic fibrosis induced NFkb Inhibitors in a PAF-induced IL8 counterscreen.; format: functional; settings: read-out: IC50_Mean
T6 sequence (P10145 whole entry): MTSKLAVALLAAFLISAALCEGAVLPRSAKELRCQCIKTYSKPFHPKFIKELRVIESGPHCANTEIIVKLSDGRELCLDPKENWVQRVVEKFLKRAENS

[8] = blockers of HIV-1 envelope-mediated cell-cell fusion – cherry-pick, dose response (AID 652057); format: functional, cell-based
[9] = viability loss in CEM21 cells – cell-based, CellTiter-Glo luminescence, cherry-picked, cytotoxicity control for viral fusion inhibitor project, dose response (AID 652042); format: functional;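 also: potency for signal decrease meaning cytotoxicity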
[10] = target: T7, Heat shock factor protein 1 (Mus musculus, UniProt P38532); assay: decrease of HSF1-responsive luciferase luminescence – cell-based, NIH3T3, dose retest, confirmation (AID 2382); format: functional;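 also: NIH3T3 fibroblasts with HSF1-driven luciferase reporter stressed by proteasome inhibitor MG132; luminescence from HSF1-driven luciferase expression after 8 hours of MG132 stress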
T7 sequence (P38532 whole entry): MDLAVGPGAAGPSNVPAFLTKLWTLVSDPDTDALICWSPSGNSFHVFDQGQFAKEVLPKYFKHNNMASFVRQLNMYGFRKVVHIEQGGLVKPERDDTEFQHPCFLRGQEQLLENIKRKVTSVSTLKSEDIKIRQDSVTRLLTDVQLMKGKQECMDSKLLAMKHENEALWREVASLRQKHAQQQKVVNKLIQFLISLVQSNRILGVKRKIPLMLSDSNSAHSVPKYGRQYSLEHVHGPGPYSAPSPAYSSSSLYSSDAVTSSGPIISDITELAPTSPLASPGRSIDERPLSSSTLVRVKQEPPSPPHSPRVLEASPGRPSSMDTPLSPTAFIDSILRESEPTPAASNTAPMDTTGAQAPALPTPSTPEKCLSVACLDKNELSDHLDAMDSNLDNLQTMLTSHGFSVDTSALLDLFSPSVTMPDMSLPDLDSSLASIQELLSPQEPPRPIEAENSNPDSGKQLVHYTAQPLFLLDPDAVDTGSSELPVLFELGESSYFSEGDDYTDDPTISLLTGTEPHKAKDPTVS

[11] = blockers of HIV-1 ZM109 envelope-driven cell-cell fusion – HeLa effector, CEM target cells, luciferase, cherry-pick, dose response (AID 652058); format: functional, cell-based;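 also: luciferase signal from HIV-1 Env mediated cell-cell fusion of effector and target cells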
[12] = target: Cytochrome P450 3A4 (Homo sapiens, UniProt P08684);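 also: CYP3A4 tested as one member of a cytochrome P450 panel screen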
[13] = off-target signal loss in HeLa-CEM21 co-culture – HeLa F-luc CTL cells, cherry-picked, counter-screen for HIV-1 Env fusion inhibitor project, dose response (AID 652040); format: functional, cell-based;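 also: potency for signal decrease marking cytotoxic or nonspecific inhibition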
[14] = target: Dual specificity tyrosine-phosphorylation-regulated kinase 1A (Rattus norvegicus, UniProt Q63470); format: biochemical, Homo sapiens
[15] = HIV-1 AD8 envelope cell-cell fusion blockers – cherry-pick, dose response (AID 652062); format: functional, cell-based;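 also: luciferase signal from cell-cell fusion driven by HIV-1 clade B AD8 Env; potency is for inhibitors of fusion seen as a drop in luminescence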
[16] = target: Sphingosine 1-phosphate receptor 2 (Homo sapiens, UniProt O95136); assay: Dose Response Cell Based Assay for Antagonists of the S1P2 Receptor. [Related pubchem assays: 856, 736 ]; format: functional
[17] = target: T6, Interleukin-8; assay: Dose Response confirmation of uHTS small molecule hits for cystic fibrosis induced NFkb Inhibitors in a TNFa-induced IL8 counterscreen.; format: functional; settings: read-out: IC50_Mean
[18] = target: T8, Microphthalmia-associated transcription factor (Homo sapiens, UniProt O75030); assay: reducers of TRPM1 reporter luminescence, concentration series – cell-based, SK-MEL-5, cherry-picked, set 3, MITF inhibitor project, dose response (AID 493073); format: functional;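 also: SK-MEL-5 melanoma cells with luciferase driven by the MITF target TRPM1 promoter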
T8 sequence (O75030 whole entry): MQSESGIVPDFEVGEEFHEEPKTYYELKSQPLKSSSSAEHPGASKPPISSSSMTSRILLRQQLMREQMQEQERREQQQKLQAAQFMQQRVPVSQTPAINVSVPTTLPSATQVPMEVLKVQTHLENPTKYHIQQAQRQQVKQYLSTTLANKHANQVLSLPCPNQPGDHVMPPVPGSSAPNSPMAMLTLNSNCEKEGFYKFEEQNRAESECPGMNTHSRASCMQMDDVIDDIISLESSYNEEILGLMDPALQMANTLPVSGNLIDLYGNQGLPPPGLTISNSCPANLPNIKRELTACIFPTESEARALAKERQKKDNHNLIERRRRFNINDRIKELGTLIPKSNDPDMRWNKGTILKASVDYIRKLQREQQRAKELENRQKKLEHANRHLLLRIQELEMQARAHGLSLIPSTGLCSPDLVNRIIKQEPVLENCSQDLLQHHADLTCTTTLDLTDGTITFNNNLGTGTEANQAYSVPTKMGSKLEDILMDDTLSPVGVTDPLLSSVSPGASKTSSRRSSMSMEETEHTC

[19] = THP-1 cell cytotoxicity, cytotoxicity control, set 4 (AID 504911); format: functional; settings: Mycobacterium tuberculosis
[20] = bead-based luminescence quenchers, dual-tagged ARNT – biochemical, AlphaScreen, cherry-pick, artefact control for ARNT-TACC3 interaction inhibitor project, dose response (AID 651705); format: functional;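 also: AlphaScreen bead proximity signal that flags compounds interfering with the detection technology; potency reflects signal decrease which marks the compound as an assay artifact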
[21] = target: T5, Mitochondrial peptide methionine sulfoxide reductase; format: functional

T5 sequence (P54149 whole entry): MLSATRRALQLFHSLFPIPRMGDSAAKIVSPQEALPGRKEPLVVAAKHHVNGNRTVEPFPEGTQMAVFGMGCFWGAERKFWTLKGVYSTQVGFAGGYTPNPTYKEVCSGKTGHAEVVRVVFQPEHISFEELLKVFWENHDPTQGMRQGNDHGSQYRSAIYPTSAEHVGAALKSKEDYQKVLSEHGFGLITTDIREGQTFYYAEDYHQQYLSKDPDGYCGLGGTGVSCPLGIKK
Chain of Sphingosine 1-phosphate receptor 2 (O95136 whole entry): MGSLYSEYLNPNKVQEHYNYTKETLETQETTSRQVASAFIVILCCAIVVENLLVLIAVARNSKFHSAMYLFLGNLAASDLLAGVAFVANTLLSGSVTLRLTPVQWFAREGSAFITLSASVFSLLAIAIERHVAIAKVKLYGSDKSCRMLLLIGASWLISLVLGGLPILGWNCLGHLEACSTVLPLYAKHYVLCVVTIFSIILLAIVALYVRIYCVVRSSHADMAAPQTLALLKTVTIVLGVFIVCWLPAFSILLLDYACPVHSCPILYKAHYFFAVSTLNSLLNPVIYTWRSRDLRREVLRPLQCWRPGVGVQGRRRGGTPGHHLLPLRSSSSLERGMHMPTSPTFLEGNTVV
Chain of Cytochrome P450 3A4 (P08684 whole entry, the tested form may be a part): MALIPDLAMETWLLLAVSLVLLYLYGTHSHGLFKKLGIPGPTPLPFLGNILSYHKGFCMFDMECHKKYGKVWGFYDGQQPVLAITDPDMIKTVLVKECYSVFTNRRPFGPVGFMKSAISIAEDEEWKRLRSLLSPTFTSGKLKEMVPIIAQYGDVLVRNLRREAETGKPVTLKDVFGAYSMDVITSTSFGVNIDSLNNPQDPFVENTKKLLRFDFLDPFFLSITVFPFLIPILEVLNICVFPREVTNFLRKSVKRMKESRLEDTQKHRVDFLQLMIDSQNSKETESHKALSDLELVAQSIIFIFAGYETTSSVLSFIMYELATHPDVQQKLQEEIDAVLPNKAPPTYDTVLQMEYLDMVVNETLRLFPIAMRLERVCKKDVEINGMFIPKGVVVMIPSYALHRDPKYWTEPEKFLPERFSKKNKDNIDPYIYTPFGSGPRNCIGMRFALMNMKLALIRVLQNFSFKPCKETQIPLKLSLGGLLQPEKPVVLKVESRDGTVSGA

## O=C(OCC(=O)N1CCN(c2ccccc2)CC1)c1ccc([N+](=O)[O-])s1
[1]
  IC50: 2.31 µM (active)
[2]
  IC50: 10.2 µM (active)
[3]
  IC50: 13.8 µM (active)
[4]
  IC50: 5.37 µM (active)
[5]
  IC50: 6.71 µM (active)
[6]
  EC50: 24.8 µM (inactive)

## COc1cccc(-c2nnc3n2N=C(C(C)(C)C)CS3)c1
[7]
  IC50: 4.14 µM (active)
[8]
  AC50: 1.25 µM (active)
[9]
  AC50: 8.58 µM (active)
[10]
  EC50: 2.96 µM (active)
[11]
  AC50: 0.976 µM (active)
[12]
  AC50: 25.1 µM (inconclusive)
[13]
  AC50: 2.95 µM (active)
[14]
  AC50: 8.72 µM (active)
[15]
  AC50: 2.3 µM (active)
[16]
  IC50: 3.31 µM (active)
[17]
  IC50: 42.4 µM (inactive)
[18]
  AC50: 4.82 µM (active)

## CCSc1nc(C)c(C)c(O)n1
[19]
  CC50: > 100 µM (active)

## O=C(CSc1cccc2cccnc12)Nc1ccccc1F
[20]
  AC50: 90.5 µM (active)

## O=[N+]([O-])c1cccc(/C=N/n2c(S)nnc2C2CCCCC2)c1
[21]
  IC50: 155 µM (inactive)
